Results published in PubChem BioAssay (NCI).
Values joined by “and” are separate entries in the source; they are usually repeats but may differ in a detail not shown here. Identical values can stand only once.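 Briefly, cells in 96-well plates were exposed to five compound concentrations for 48 h, and endpoints were estimated by linear interpolation. Here, GI50 denotes the concentration required for 50% inhibition of growth. The concentration for full growth arrest is given as TGI.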

Tests used:
Assay in all cases: NCI tumour cell line growth inhibition, 48 h
[1] = test system: LOX IMVI melanoma
[2] = test system: DLD-1 colon
[3] = test system: DMS 114 small cell lung
[4] = test system: SK-MEL-2 melanoma
[5] = test system: RPMI-8226 leukemia
[6] = test system: NCI-H226 lung
[7] = test system: UACC-62 melanoma
[8] = test system: HT29 colon
[9] = test system: M19-MEL melanoma
[10] = test system: OVCAR-5 ovarian
[11] = test system: SF-295 CNS
[12] = test system: NCI-H522 lung
[13] = test system: NCI-H460 lung
[14] = test system: SF-268 CNS
[15] = test system: HOP-62 NSCLC
[16] = test system: NCI/ADR-RES ovarian
[17] = test system: HCC-2998 colon
[18] = test system: IGROV1 ovarian
[19] = test system: UO-31 renal
[20] = test system: HL-60(TB) leukemia
[21] = test system: CCRF-CEM leukemia
[22] = test system: SNB-75 CNS
[23] = test system: K-562 leukemia
[24] = test system: SK-MEL-5 melanoma
[25] = test system: MALME-3M melanoma
[26] = test system: KM20L2 colon
[27] = test system: P388 leukemia
[28] = test system: SF-539 CNS
[29] = test system: UACC-257 melanoma
[30] = test system: HCT-15 colon
[31] = test system: A498 renal
[32] = test system: SN12K1 renal
[33] = test system: EKVX NSCLC
[34] = test system: OVCAR-4 ovarian
[35] = test system: SNB-78 CNS
[36] = test system: MOLT-4 leukemia
[37] = test system: SW-620 colon
[38] = test system: KM12 colon
[39] = test system: MCF7 breast
[40] = test system: RXF 393 renal
[41] = test system: SNB-19 CNS
[42] = test system: A549 NSCLC
[43] = test system: HOP-18 NSCLC
[44] = test system: XF 498 CNS
[45] = test system: P388/ADR leukemia
[46] = test system: SK-MEL-28 melanoma
[47] = test system: HCT-116 colon
[48] = test system: U251 CNS
[49] = test system: OVCAR-3 ovarian
[50] = test system: COLO 205 colon
[51] = test system: HOP-92 NSCLC
[52] = test system: NCI-H23 lung
[53] = test system: MDA-N
[54] = test system: T-47D breast
[55] = test system: LXFL 529 NSCLC
[56] = test system: DU-145 prostate
[57] = test system: RXF-631 renal
[58] = test system: SK-OV-3 ovarian
[59] = test system: HS 578T breast
[60] = test system: DMS 273 small cell lung
[61] = test system: BT-549 breast
[62] = test system: PC-3 prostate
[63] = test system: MDA-MB-231 breast

## ClCc1ccc2ccc3ccc(CCl)nc3c2n1
[1]
  TGI: 2.9 µM
[2]
  TGI: 2.89 µM
[3]
  TGI: 4.26 µM
[4]
  TGI: 4.81 µM
[5]
  TGI: 13.1 µM
[6]
  TGI: 9.91 µM
[7]
  TGI: 2.64 µM
[8]
  TGI: 6.28 µM
[9]
  TGI: 3.97 µM
[10]
  TGI: 7.82 µM
[11]
  TGI: 5.69 µM
[12]
  TGI: 3.44 µM
[13]
  TGI: 19.6 µM
[14]
  TGI: 55 µM
[15]
  TGI: 15.4 µM
[16]
  TGI: 3.66 µM
[17]
  TGI: 8.59 µM
[18]
  TGI: 3.48 µM
[19]
  TGI: 3.21 µM
[20]
  TGI: 4.43 µM
[21]
  TGI: 8.64 µM
[22]
  TGI: 5.83 µM
[23]
  TGI: > 100 µM
[24]
  TGI: 3.13 µM
[25]
  TGI: 3.69 µM
[26]
  TGI: 12 µM
[27]
  TGI: 7.32 µM
[28]
  TGI: 5.85 µM
[29]
  TGI: 3.38 µM
[30]
  TGI: 4.69 µM
[31]
  TGI: 22.4 µM
[32]
  TGI: 4.4 µM
[33]
  TGI: > 47.5 µM
[34]
  TGI: 14.5 µM
[35]
  TGI: 10.3 µM
[36]
  TGI: 4.02 µM
[37]
  TGI: 7.79 µM
[38]
  TGI: 2.32 µM
[39]
  TGI: 2.74 µM
[40]
  TGI: 3.17 µM
[41]
  TGI: 27.9 µM
[42]
  TGI: > 42.2 µM
[43]
  TGI: 8.77 µM
[44]
  TGI: 4.45 µM
[45]
  TGI: 5.07 µM
[46]
  TGI: 4 µM
[47]
  TGI: 3.44 µM
[48]
  TGI: 3.78 µM
[49]
  TGI: 4.81 µM
[50]
  TGI: 3.15 µM
[51]
  TGI: 3.63 µM
[52]
  TGI: 7.88 µM

## Cc1cc2c(C(C)C)c(O)c(O)c(C=O)c2c(O)c1-c1c(C)cc2c(C(C)C)c(O)c(O)c(C=O)c2c1O
[53]
  TGI: > 100 µM
[2]
  TGI: 15.5 µM
[3]
  TGI: 9.21 µM
[54]
  TGI: 7.76 µM and 50.5 µM and 26.4 µM
[55]
  TGI: 8.26 µM
[9]
  TGI: 11.4 µM
[56]
  TGI: 4.04 µM and 36.8 µM and 29.4 µM
[57]
  TGI: 25.3 µM
[58]
  TGI: 8.26 µM and 50.9 µM and 31 µM
[26]
  TGI: 11.4 µM
[59]
  TGI: 13.5 µM and 36 µM and 27.8 µM
[60]
  TGI: 18.3 µM
[35]
  TGI: 25.8 µM
[37]
  TGI: 30.8 µM [middle of 4 runs]
[61]
  TGI: 7.42 µM and 41.7 µM and 29.8 µM
[62]
  TGI: 7.11 µM and 33.8 µM and 24.5 µM
[43]
  TGI: 11.3 µM
[44]
  TGI: 5.55 µM
[46]
  GI50: 2.39 µM and 18 µM and 9.01 µM
[63]
  GI50: 14.8 µM and 6.06 µM
  TGI: 34.5 µM and 16.6 µM
